Numbers after ± are expanded uncertainties.
Experiment: molar enthalpy of vaporization or sublimation
Settings: 298.15 K; Crystal; Static calorimetry

Structure (SMILES) | molar enthalpy [kcal/mol]
O=C1OCc2ccccc21 [1(3H)-isobenzofuranone] | 21.1 ± 1.05
O=C1OC(=O)c2ccccc21 [isobenzofuran-1,3-dione] | 21 ± 1.12
